Where two headings read alike, the source gives them in different places.
Assays:
Assay in all cases: biochemical
MARK2 = MARK2 (Homo sapiens, UniProt Q7KZI7)
LATS2 = LATS2 (Homo sapiens, UniProt Q9NRM7)
BRAF(V600E) = BRAF(V600E) (Homo sapiens, UniProt P15056, V600E)
LIMK1 = LIMK1 (Homo sapiens, UniProt P53667)
CSNK1A1 = CSNK1A1 (Homo sapiens, UniProt P48729)
MST2 = MST2 (Homo sapiens, UniProt Q13188)
MTOR = MTOR (Homo sapiens, UniProt P42345)
CDKL3 = CDKL3 (Homo sapiens, UniProt Q8IVW4)
MYO3B = MYO3B (Homo sapiens, UniProt Q8WXR4)
MEK5 = MEK5 (Homo sapiens, UniProt Q13163)
FLT3(K663Q) = FLT3(K663Q) (Homo sapiens, UniProt P36888, K663Q)
MYLK = MYLK (Homo sapiens, UniProt Q15746)
JNK1 = JNK1 (Homo sapiens, UniProt P45983)
MUSK = MUSK (Homo sapiens, UniProt O15146)
CSNK1E = CSNK1E (Homo sapiens, UniProt P49674)
HIPK1 = HIPK1 (Homo sapiens, UniProt Q86Z02)
FER = FER (Homo sapiens, UniProt P16591)
KIT(D816V) = KIT(D816V) (Homo sapiens, UniProt P10721, D816V)
FAK = FAK (Homo sapiens, UniProt Q05397)
MEK4 = MEK4 (Homo sapiens, UniProt P45985)
DRAK2 = DRAK2 (Homo sapiens, UniProt O94768)
CAMKK2 = CAMKK2 (Homo sapiens, UniProt Q96RR4)
CDK7 = CDK7 (Homo sapiens, UniProt P50613)
MYLK4 = MYLK4 (Homo sapiens, UniProt Q86YV6)
DYRK2 = DYRK2 (Homo sapiens, UniProt Q92630)
DAPK1 = DAPK1 (Homo sapiens, UniProt P53355)
CDK9 = CDK9 (Homo sapiens, UniProt P50750)
AMPK-alpha2 = AMPK-alpha2 (Homo sapiens, UniProt P54646)
HPK1 = HPK1 (Homo sapiens, UniProt Q92918)
EGFR(G719S) = EGFR(G719S) (Homo sapiens, UniProt P00533, G719S)
[1] = read-out: CPT-1-70-1 (1uM) % control
[2] = read-out: HYJ-2-002-1 (1uM) % control

CSNK1E, sequence (P49674 whole entry): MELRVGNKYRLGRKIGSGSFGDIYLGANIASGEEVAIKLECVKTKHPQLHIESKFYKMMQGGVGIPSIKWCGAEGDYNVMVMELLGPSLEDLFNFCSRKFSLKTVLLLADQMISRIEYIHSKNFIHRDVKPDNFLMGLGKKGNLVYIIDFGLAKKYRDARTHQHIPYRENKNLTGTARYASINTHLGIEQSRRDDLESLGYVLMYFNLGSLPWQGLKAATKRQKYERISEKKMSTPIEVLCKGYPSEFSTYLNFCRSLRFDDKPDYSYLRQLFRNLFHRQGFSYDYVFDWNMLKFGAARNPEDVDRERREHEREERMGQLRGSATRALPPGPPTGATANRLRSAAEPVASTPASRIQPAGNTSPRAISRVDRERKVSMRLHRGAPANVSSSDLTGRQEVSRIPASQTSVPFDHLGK
CDK7, sequence (P50613 whole entry): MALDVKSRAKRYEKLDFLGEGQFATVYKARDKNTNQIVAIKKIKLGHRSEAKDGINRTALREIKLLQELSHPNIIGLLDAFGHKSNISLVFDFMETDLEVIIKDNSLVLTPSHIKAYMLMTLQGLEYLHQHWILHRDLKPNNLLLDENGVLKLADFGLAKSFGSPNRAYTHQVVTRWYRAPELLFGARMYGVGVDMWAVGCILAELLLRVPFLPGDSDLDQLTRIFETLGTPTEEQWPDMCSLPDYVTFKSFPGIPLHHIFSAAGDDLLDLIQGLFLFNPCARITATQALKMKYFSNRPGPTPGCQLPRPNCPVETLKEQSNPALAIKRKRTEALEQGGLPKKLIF
MST2, sequence (Q13188 whole entry): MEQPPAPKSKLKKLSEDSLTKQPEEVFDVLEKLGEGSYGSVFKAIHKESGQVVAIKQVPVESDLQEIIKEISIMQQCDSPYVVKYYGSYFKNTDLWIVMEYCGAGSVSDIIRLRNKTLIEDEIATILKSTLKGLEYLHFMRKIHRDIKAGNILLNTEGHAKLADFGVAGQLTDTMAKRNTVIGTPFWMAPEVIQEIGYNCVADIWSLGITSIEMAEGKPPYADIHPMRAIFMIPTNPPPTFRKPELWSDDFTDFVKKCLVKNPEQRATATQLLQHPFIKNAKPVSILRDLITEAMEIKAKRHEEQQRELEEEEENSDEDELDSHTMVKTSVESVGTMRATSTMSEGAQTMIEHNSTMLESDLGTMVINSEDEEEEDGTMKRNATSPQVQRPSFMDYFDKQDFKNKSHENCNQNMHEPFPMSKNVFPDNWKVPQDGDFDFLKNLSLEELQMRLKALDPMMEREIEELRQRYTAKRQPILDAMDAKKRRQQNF
AMPK-alpha2, sequence (P54646 whole entry): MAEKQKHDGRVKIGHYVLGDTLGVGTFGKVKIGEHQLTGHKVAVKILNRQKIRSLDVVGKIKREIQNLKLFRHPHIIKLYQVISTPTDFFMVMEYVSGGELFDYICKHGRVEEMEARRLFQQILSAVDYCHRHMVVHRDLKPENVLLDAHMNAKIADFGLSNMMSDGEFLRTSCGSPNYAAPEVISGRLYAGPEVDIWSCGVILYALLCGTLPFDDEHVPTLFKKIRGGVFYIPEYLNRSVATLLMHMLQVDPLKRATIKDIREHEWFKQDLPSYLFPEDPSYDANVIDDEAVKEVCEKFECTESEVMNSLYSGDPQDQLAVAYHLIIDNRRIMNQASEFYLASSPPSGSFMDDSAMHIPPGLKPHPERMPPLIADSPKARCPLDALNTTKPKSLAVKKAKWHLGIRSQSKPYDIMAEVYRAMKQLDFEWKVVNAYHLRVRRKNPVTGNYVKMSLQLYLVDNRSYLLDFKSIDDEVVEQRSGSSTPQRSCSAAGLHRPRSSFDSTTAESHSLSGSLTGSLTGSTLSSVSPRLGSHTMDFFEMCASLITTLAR
MEK4, sequence (P45985 whole entry): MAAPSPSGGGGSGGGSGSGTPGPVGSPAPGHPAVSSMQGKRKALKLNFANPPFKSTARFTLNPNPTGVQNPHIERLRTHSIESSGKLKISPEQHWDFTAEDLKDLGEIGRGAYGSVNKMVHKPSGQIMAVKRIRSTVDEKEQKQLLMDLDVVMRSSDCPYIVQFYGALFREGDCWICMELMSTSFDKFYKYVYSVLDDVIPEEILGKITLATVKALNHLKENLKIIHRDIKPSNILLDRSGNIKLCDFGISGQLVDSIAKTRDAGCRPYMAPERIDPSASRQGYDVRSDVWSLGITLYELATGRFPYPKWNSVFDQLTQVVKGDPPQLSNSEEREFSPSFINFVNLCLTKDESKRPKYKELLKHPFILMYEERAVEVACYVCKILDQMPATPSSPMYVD
FAK, sequence (Q05397 whole entry): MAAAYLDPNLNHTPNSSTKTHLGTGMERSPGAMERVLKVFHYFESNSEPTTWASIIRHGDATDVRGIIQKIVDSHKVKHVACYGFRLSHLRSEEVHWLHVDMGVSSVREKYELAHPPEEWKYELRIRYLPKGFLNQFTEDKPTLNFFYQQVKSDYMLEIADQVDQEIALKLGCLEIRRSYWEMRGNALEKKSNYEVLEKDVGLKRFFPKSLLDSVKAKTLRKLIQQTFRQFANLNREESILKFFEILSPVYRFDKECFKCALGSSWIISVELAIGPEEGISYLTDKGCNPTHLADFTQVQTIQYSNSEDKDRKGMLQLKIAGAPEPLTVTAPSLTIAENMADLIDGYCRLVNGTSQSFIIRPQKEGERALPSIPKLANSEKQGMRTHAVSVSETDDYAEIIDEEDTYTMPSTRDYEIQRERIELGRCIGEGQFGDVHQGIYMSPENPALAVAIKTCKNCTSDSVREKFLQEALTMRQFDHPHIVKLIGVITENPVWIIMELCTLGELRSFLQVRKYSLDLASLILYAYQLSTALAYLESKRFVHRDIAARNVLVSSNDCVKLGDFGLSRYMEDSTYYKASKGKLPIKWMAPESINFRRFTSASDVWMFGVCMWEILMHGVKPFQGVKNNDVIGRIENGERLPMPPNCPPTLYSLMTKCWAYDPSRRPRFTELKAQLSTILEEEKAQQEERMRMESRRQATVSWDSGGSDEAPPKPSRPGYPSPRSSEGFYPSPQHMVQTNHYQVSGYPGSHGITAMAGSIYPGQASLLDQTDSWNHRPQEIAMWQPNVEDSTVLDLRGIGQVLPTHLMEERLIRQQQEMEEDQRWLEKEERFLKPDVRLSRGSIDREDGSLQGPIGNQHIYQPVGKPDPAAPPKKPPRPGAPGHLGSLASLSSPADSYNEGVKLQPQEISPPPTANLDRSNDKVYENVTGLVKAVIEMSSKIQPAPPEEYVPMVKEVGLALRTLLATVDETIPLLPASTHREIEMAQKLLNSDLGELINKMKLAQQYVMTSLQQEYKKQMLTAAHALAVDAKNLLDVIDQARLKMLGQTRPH
EGFR(G719S), sequence (P00533 whole entry G719S): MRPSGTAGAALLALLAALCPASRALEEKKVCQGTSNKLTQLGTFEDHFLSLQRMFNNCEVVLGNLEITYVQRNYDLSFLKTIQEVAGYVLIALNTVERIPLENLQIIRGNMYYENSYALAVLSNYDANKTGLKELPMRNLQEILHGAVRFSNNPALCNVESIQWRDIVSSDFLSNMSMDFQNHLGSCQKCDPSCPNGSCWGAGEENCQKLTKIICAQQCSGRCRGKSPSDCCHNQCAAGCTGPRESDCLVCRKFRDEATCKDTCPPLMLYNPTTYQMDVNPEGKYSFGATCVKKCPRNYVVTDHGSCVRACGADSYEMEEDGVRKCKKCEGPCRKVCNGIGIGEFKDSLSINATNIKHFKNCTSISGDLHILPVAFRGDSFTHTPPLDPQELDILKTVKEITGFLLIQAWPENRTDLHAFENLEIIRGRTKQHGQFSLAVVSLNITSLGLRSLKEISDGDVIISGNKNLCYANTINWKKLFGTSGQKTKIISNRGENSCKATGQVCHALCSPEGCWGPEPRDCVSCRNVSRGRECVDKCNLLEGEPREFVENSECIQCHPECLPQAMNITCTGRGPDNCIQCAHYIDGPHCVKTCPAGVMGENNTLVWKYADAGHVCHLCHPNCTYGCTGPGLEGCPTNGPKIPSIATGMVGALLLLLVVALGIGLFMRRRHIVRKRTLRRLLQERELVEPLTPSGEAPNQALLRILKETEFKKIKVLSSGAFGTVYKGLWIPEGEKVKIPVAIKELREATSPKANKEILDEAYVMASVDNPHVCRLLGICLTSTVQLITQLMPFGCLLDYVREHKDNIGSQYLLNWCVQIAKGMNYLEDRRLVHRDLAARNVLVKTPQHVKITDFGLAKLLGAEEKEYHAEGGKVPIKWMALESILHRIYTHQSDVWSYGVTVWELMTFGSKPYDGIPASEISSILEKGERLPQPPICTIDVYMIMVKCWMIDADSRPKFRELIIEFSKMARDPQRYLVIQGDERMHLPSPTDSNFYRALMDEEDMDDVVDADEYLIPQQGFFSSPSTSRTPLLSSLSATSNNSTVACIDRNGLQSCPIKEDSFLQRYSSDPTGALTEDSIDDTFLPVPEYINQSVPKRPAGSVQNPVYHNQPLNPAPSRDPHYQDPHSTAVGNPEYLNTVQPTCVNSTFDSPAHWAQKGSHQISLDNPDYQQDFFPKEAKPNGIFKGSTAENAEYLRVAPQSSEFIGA
CSNK1A1, sequence (P48729 whole entry): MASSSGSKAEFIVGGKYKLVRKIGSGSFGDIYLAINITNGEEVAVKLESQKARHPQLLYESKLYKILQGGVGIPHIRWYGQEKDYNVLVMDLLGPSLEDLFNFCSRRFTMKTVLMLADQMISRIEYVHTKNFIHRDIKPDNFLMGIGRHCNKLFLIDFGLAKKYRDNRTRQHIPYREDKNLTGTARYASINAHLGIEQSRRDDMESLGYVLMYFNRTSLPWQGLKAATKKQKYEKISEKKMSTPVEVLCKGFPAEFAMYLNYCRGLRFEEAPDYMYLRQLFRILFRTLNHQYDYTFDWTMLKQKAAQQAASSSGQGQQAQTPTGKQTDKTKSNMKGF

`CN1CCN(c2ccc(Nc3nc(Oc4ccc(NC(=O)CCl)cc4)c4cc[nH]c4n3)cc2)CC1` [CPT1-70-1] was tested, and the remaining activity at 1 µM (MARK2; [1]) was 10%, the remaining activity at 1 µM (LATS2; [1]) was 40% and the remaining activity at 1 µM (BRAF(V600E); [1]) was 100%. The remaining activity at 1 µM (LIMK1; [1]) was 90%, the remaining activity at 1 µM (CSNK1A1; [1]) was 55% and the remaining activity at 1 µM (MST2; [1]) was 86%. It also gave a remaining activity at 1 µM (MTOR; [1]) of 66%, a remaining activity at 1 µM (CDKL3; [1]) of 100% and a remaining activity at 1 µM (MYO3B; [1]) of 100%. It also gave a remaining activity at 1 µM (MEK5; [1]) of 18%, a remaining activity at 1 µM (FLT3(K663Q); [1]) of 2.4% and a remaining activity at 1 µM (MYLK; [1]) of 100%. It also gave a remaining activity at 1 µM (JNK1; [1]) of 2.4%, a remaining activity at 1 µM (MUSK; [1]) of 8.8% and a remaining activity at 1 µM (CSNK1E; [1]) of 18%. The remaining activity at 1 µM (HIPK1; [1]) was 52%, the remaining activity at 1 µM (FER; [1]) was 45% and the remaining activity at 1 µM (KIT(D816V); [1]) was 60%. It also gave a remaining activity at 1 µM (FAK; [1]) of 85%, a remaining activity at 1 µM (MEK4; [1]) of 35% and a remaining activity at 1 µM (DRAK2; [1]) of 90%. It also gave a remaining activity at 1 µM (CAMKK2; [1]) of 68%, a remaining activity at 1 µM (CDK7; [1]) of 100% and a remaining activity at 1 µM (MYLK4; [1]) of 92%. It also gave a remaining activity at 1 µM (DYRK2; [1]) of 100%, a remaining activity at 1 µM (DAPK1; [1]) of 86% and a remaining activity at 1 µM (CDK9; [1]) of 90%. It also gave a remaining activity at 1 µM (AMPK-alpha2; [1]) of 41%, a remaining activity at 1 µM (HPK1; [1]) of 13% and a remaining activity at 1 µM (EGFR(G719S); [1]) of 34%.
`CCN1CCN(Cc2ccc(NC(=O)c3ccc(C)c(CCc4cnc5[nH]ccc5c4OC)c3)cc2C(F)(F)F)CC1` [HYJ-2-002-1] showed a remaining activity at 1 µM (MARK2; [2]) of 64%, a remaining activity at 1 µM (LATS2; [2]) of 98% and a remaining activity at 1 µM (BRAF(V600E); [2]) of 1.2%. It also gave a remaining activity at 1 µM (LIMK1; [2]) of 26%, a remaining activity at 1 µM (CSNK1A1; [2]) of 100% and a remaining activity at 1 µM (MST2; [2]) of 83%. For the same molecule, the remaining activity at 1 µM (MTOR; [2]) was 93%, the remaining activity at 1 µM (CDKL3; [2]) was 34% and the remaining activity at 1 µM (MYO3B; [2]) was 49%. The remaining activity at 1 µM (MEK5; [2]) was 0.85%, the remaining activity at 1 µM (FLT3(K663Q); [2]) was 1.6% and the remaining activity at 1 µM (MYLK; [2]) was 100%. The remaining activity at 1 µM (JNK1; [2]) was 72%, the remaining activity at 1 µM (MUSK; [2]) was 1.4% and the remaining activity at 1 µM (CSNK1E; [2]) was 75%. For the same molecule, the remaining activity at 1 µM (HIPK1; [2]) was 51%, the remaining activity at 1 µM (FER; [2]) was 56% and the remaining activity at 1 µM (KIT(D816V); [2]) was 9.2%. The remaining activity at 1 µM (FAK; [2]) was 91%, the remaining activity at 1 µM (MEK4; [2]) was 100% and the remaining activity at 1 µM (DRAK2; [2]) was 57%. It also gave a remaining activity at 1 µM (CAMKK2; [2]) of 100%, a remaining activity at 1 µM (CDK7; [2]) of 44% and a remaining activity at 1 µM (MYLK4; [2]) of 100%. The remaining activity at 1 µM (DYRK2; [2]) was 96%, the remaining activity at 1 µM (DAPK1; [2]) was 98% and the remaining activity at 1 µM (CDK9; [2]) was 100%. The remaining activity at 1 µM (AMPK-alpha2; [2]) was 100%, the remaining activity at 1 µM (HPK1; [2]) was 3.4% and the remaining activity at 1 µM (EGFR(G719S); [2]) was 1.8%.

— article doi:10.1101/2020.06.11.145995v1 (biorxiv, 2020)
